Results from patent US20240158446A1, “CYCLIC COMPOUND HAVING SELECTIVE INHIBITORY ACTION ON KRAS OVER HRAS AND NRAS” (CHUGAI SEIYAKU KABUSHIKI KAISHA, priority 2021, published 2024).
Where two headings read alike, the source gives them in different places.

Tests used:
[1] = target: GDP-bound HRAS wild-type protein (Homo sapiens, UniProt P01112); test: Binding to HRAS by surface plasmon resonance (SPR), Single Cycle Kinetics; conditions: for HRAS/KRAS (ratio of KD value with respect to GDP-bound HRAS wild-type protein to KD value with respect to KRAS): SPR KD ratio HRAS/KRAS, class symbols; for HRAS/KRAS (ratio of KD value for HRAS to KD value for KRAS) / ratio of the KD value with respect to GDP-bound HRAS wild-type protein to the KD value with respect to KRAS: SPR; for HRAS/KRAS (ratio of KD value for HRAS to KD value for KRAS): GDP-bound HRAS wild-type protein vs GDP-bound KRAS wild-type protein
[2] = test system: human lung cancer strain NCI-H441;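 note: cell proliferation inhibition after four days measured by CellTiter-Glo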
[3] = target: GDP-bound KRAS wild-type protein (Homo sapiens, UniProt P01116); test: Binding to KRAS by surface plasmon resonance (SPR), Single Cycle Kinetics
[4] = target: GDP-bound NRAS wild-type protein (Homo sapiens, UniProt P01111); test: Binding to NRAS by surface plasmon resonance (SPR), Single Cycle Kinetics; conditions: for NRAS/KRAS (ratio of KD value with respect to GDP-bound NRAS wild-type protein to KD value with respect to KRAS): SPR KD ratio NRAS/KRAS, class symbols; for NRAS/KRAS (ratio of KD value for NRAS to KD value for KRAS) / ratio of the KD value with respect to GDP-bound NRAS wild-type protein to the KD value with respect to KRAS: SPR; for NRAS/KRAS (ratio of KD value for NRAS to KD value for KRAS): GDP-bound NRAS wild-type protein vs GDP-bound KRAS wild-type protein
[5] = SPR Single Cycle Kinetics, GDP-bound KRAS wild-type protein, 1:1 binding model, read-out: KRAS KD
[6] = read-out: NCI-H441 cell proliferation inhibitory activity, 50% proliferation inhibitory concentration (IC50 value), NCI-H441, four days, CellTiter-Glo
[7] = SPR, Single Cycle Kinetics, GDP-bound KRAS wild-type protein, read-out: KRAS KD
[8] = SPR, Single Cycle Kinetics, 1:1 binding model, GDP-bound KRAS wild-type protein, read-out: KRAS KD

GDP-bound NRAS wild-type protein, sequence (P01111 whole entry): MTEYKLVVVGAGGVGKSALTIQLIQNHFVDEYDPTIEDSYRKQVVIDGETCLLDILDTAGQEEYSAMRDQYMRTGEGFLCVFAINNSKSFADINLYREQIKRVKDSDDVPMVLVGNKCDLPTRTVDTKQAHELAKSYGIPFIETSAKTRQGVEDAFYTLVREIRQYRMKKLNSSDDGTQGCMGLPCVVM
GDP-bound HRAS wild-type protein, sequence (P01112 whole entry): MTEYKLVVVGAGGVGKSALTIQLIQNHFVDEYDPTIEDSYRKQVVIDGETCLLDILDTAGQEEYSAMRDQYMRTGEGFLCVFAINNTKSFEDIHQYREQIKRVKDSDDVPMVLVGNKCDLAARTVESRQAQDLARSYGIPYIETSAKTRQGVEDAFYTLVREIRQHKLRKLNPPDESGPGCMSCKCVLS
GDP-bound KRAS wild-type protein, sequence (P01116 whole entry): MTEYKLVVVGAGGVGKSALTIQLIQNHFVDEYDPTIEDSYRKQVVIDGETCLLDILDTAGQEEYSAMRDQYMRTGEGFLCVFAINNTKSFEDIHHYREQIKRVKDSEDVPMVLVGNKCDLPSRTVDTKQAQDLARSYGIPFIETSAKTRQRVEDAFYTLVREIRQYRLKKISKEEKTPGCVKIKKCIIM

## CCC[C@H]1C(=O)N[C@@H](CC(C)C)C(=O)N2C[C@@H](OC)C[C@H]2C(=O)N(C)[C@H]2C/C=C\CCN(C2=O)[C@@H](Cc2ccc(C)cc2)C(=O)N(C)CC(=O)N[C@@H](CCc2cc(F)c(C(F)(F)F)c(F)c2)C(=O)N2C[C@H](OCC)C[C@H]2C(=O)NC2(CC(C)(C)C2)C(=O)N(C)[C@@H](C2CCCC2)C(=O)N(C)[C@H](C(=O)N(C)C)CC(=O)N1C [PP2553]
[1]
  HRAS/KRAS (ratio of KD value with respect to GDP-bound HRAS wild-type protein to KD value with respect to KRAS): B (a compound having 3 or more and less than 10 is denoted as B)
[2]
  IC50: 121 nM
[3]; [5]
  Kd: 3.4 nM
[4]
  NRAS/KRAS (ratio of KD value with respect to GDP-bound NRAS wild-type protein to KD value with respect to KRAS): A (a compound having 10 or more and less than 20 is denoted as A)

## CCC[C@H]1C(=O)N[C@@H]([C@@H](C)CC)C(=O)N(C)CC(=O)N(C)[C@H]2C/C=C\CCN(C2=O)[C@@H](Cc2ccc(C(F)(F)F)cc2)C(=O)N(C)CC(=O)N[C@@H](CCc2ccc(C(F)(F)F)c(OC)c2)C(=O)N2C[C@H](OCC)C[C@H]2C(=O)NC2(CC(C)(C)C2)C(=O)N(C)[C@@H](CC(C)(C)C)C(=O)N(C)[C@H](C(=O)N(C)C)CC(=O)N1C [PP2734]
[1]
  HRAS/KRAS (ratio of KD value with respect to GDP-bound HRAS wild-type protein to KD value with respect to KRAS): B (a compound having 3 or more and less than 10 is denoted as B)
[2]
  IC50: 3.1 nM
[3]; [5]
  Kd: 0.1 nM
[4]
  NRAS/KRAS (ratio of KD value with respect to GDP-bound NRAS wild-type protein to KD value with respect to KRAS): A (a compound having 10 or more and less than 20 is denoted as A)

## CCO[C@@H]1C[C@H]2C(=O)NC3(CC(C)(C)C3)C(=O)N(C)[C@@H](C3CCCC3)C(=O)N(C)[C@H](C(=O)N3CCCCC3)CC(=O)N(C)[C@H]3CCCCc4ccc(cc4)C[C@@H](C(=O)N(C)CC(=O)N[C@@H](CCc4ccc(C(F)(F)F)c(OC)c4)C(=O)N2C1)N1CC/C=C\C[C@@H](C1=O)N(C)C(=O)CN(C)C(=O)[C@H]([C@@H](C)CC)NC3=O [PP3093, (1S,7S,11R,13S,19S,22S,26S,29S,35S,37Z)-19-cyclopentyl-11-ethoxy-7-[2-[3-methoxy-4-(trifluoromethyl)phenyl]ethyl]-3,3′,3′,18,21,25,31,34-octamethyl-29-[(1S)-1-methylpropyl]-22-(piperidine-1-carbonyl)spiro[3,6,9,15,18,21,25,28,31,34,41-undecazapentacyclo[24.15.9.2^43,46.1^35,41.0^9,13]tripentaconta-37,43(52),44,46(51)-tetraene-16,1′-cyclobutane]-2,5,8,14,17,20,24,27,30,33,53-undecone]
[1]
  HRAS/KRAS (ratio of KD value for HRAS to KD value for KRAS): A (a compound having 10 or more and less than 20 is denoted as A)
  ratio of the KD value with respect to GDP-bound HRAS wild-type protein to the KD value with respect to KRAS: A (a compound having 10 or more and less than 20 is denoted as A)
[2]; [6]
  IC50: 3.2 nM
[3]; SPR, Single Cycle Kinetics, 1:1 binding model, read-out: KD value with respect to GDP-bound KRAS wild-type protein
  Kd: 0.097 nM
[3]; [7]
  Kd: 0.097 nM
[4]
  NRAS/KRAS (ratio of KD value for NRAS to KD value for KRAS): A (a compound having 10 or more and less than 20 is denoted as A)
  ratio of the KD value with respect to GDP-bound NRAS wild-type protein to the KD value with respect to KRAS: A (a compound having 10 or more and less than 20 is denoted as A)

## CCO[C@@H]1C[C@H]2C(=O)NC3(CCC3)C(=O)N(C)[C@@H](C(CC)CC)C(=O)N(C)[C@H](C(=O)N(C)C)CC(=O)N(C)[C@@H](CC3CCCC3)C(=O)N[C@@H]([C@@H](C)CC)C(=O)N(C)CC(=O)N(C)[C@H]3C/C=C\CCN(C3=O)[C@@H](Cc3ccc(C(F)(F)F)cc3)C(=O)N(C)CC(=O)N[C@@H](CCc3ccc(Cl)c(Cl)c3)C(=O)N2C1 [PP1220]
[1]; KD ratio class
  HRAS/KRAS (ratio of KD value for HRAS to KD value for KRAS): A (a compound having 10 or more and less than 20 is denoted as A)
[2]
  IC50: 22.2 nM
[3]; [8]
  Kd: 0.57 nM
[4]; KD ratio class
  NRAS/KRAS (ratio of KD value for NRAS to KD value for KRAS): AA (a compound having 20 or more is denoted as AA)

## CCO[C@@H]1C[C@H]2C(=O)N(C)C3(CC(C)(C)C3)C(=O)N(C)[C@@H](C3CCCC3)C(=O)N(C)[C@H](C(=O)N(C)C)CC(=O)N(C)[C@H]3CCCCCCc4ccc(cc4)C[C@@H](C(=O)N(C)CC(=O)N[C@@H](CCc4ccc(C(F)(F)F)c(OC)c4)C(=O)N2C1)N1CC/C=C\C[C@@H](C1=O)N(C)C(=O)CN(C)C(=O)[C@H]([C@@H](C)CC)NC3=O [PP3090]
[1]
  HRAS/KRAS (ratio of KD value for HRAS to KD value for KRAS): B (a compound having 3 or more and less than 10 is denoted as B)
  ratio of the KD value with respect to GDP-bound HRAS wild-type protein to the KD value with respect to KRAS: B (a compound having 3 or more and less than 10 is denoted as B)
[2]; [6]
  IC50: 1.3 nM
[3]; [7]
  Kd: 0.033 nM
[4]
  NRAS/KRAS (ratio of KD value for NRAS to KD value for KRAS): A (a compound having 10 or more and less than 20 is denoted as A)
  ratio of the KD value with respect to GDP-bound NRAS wild-type protein to the KD value with respect to KRAS: A (a compound having 10 or more and less than 20 is denoted as A)

## C#CC[C@H]1C(=O)N[C@@H]([C@@H](C)CC)C(=O)N(C)CC(=O)N(C)[C@H]2C/C=C\CCN(C2=O)[C@@H](Cc2ccc(C(F)(F)F)cc2)C(=O)N(C)CC(=O)N[C@@H](CCc2cc(F)c(C(F)(F)F)c(F)c2)C(=O)N2C[C@@H](C)C[C@H]2C(=O)NC2(CCC2)C(=O)N(C)[C@@H](C2CCCC2)C(=O)N(C)[C@H](C(=O)N(C)CCC)CC(=O)N1C [PP2077]
[1]
  HRAS/KRAS (ratio of KD value for HRAS to KD value for KRAS): A (a compound having 10 or more and less than 20 is denoted as A)
[2]
  IC50: 10.9 nM
[3]; [7]
  Kd: 0.12 nM
[4]
  NRAS/KRAS (ratio of KD value for NRAS to KD value for KRAS): A (a compound having 10 or more and less than 20 is denoted as A)

## CCO[C@@H]1C[C@H]2C(=O)NC3(CCC3)C(=O)N(C)[C@@H](C3CCCC3)C(=O)N(C)[C@H](C(=O)N(C)C)CC(=O)N(C)[C@@H](COC3CC3)C(=O)N[C@@H]([C@@H](C)CC)C(=O)N(C)CC(=O)N(C)[C@H]3C/C=C\CCN(C3=O)[C@@H](Cc3ccc(C(F)(F)F)cc3)C(=O)N(C)CC(=O)N[C@@H](CCc3cc(F)c(C(F)(F)F)c(F)c3)C(=O)N2C1 [PP1268, (2S,8S,12R,14S,20S,23S,27S,30S,36S,38Z)-20-cyclopentyl-27-(cyclopropoxymethyl)-8-[2-[3,5-difluoro-4-(trifluoromethyl)phenyl]ethyl]-12-ethoxy-N,N,4,19,22,26,32,35-octamethyl-30-[(1S)-1-methylpropyl]-3,6,9,15,18,21,25,28,31,34,42-undecaoxo-2-[[4-(trifluoromethyl)phenyl]methyl]spiro[1,4,7,10,16,19,22,26,29,32,35-undecazatricyclo[34.5.1.0^10,14]dotetracont-38-ene-17,1′-cyclobutane]-23-carboxamide]
[1]; KD ratio class
  HRAS/KRAS (ratio of KD value for HRAS to KD value for KRAS): A (a compound having 10 or more and less than 20 is denoted as A)
[2]
  IC50: 12.1 nM
[3]; [8]
  Kd: 0.045 nM
[4]; KD ratio class
  NRAS/KRAS (ratio of KD value for NRAS to KD value for KRAS): A (a compound having 10 or more and less than 20 is denoted as A)

## CCCO[C@H](C)[C@@H]1NC(=O)[C@H](COCC)N(C)C(=O)C[C@@H](C(=O)N(C)CC)N(C)C(=O)[C@H](C2CCCC2)N(C)C(=O)C2(CC(C)(C)C2)NC(=O)[C@@H]2C[C@H](C)CN2C(=O)[C@H](CCc2ccc(C(F)(F)F)c(OC)c2)NC(=O)CN(C)C(=O)[C@H](Cc2ccc(C)cc2)N2CC/C=C\C[C@@H](C2=O)N(C)C(=O)CN(C)C1=O [PP2425]
[1]
  HRAS/KRAS (ratio of KD value for HRAS to KD value for KRAS): A (a compound having 10 or more and less than 20 is denoted as A)
[2]
  IC50: 51.7 nM
[3]; [7]
  Kd: 0.23 nM
[4]
  NRAS/KRAS (ratio of KD value for NRAS to KD value for KRAS): AA (a compound having 20 or more is denoted as AA)

## CCO[C@@H]1C[C@H]2C(=O)NC3(CCC3)C(=O)N(C)[C@@H](C3CCCC3)C(=O)N(C)[C@H](C(=O)N(C)C)CC(=O)N(C)[C@@H](CC)C(=O)N[C@@H]([C@@H](C)CC)C(=O)N(C)CC(=O)N(C)[C@H]3CCCCCN(C3=O)[C@@H](Cc3ccc(F)cc3)C(=O)N(C)CC(=O)N[C@@H](CCc3cc(F)c(C(F)(F)F)c(F)c3)C(=O)N2C1 [PP1190]
[1]
  HRAS/KRAS (ratio of KD value for HRAS to KD value for KRAS): B (a compound having 3 or more and less than 10 is denoted as B)
[2]
  IC50: 15.5 nM
[3]; [7]
  Kd: 0.092 nM
[4]
  NRAS/KRAS (ratio of KD value for NRAS to KD value for KRAS): B (a compound having 3 or more and less than 10 is denoted as B)

## CC[C@H](C)[C@@H]1NC(=O)[C@H](COC)N(C)C(=O)C[C@@H](C(=O)N2CCCCC2)N(C)C(=O)[C@H](C2CCCC2)N(C)C(=O)C2(CC(C)(C)C2)NC(=O)[C@@H]2C[C@@H](OC3CCCC3)CN2C(=O)[C@H](CCc2cc(F)c(C(F)(F)F)c(F)c2)NC(=O)CN(C)C(=O)[C@H](Cc2ccc(C(F)(F)F)cc2)N2CC/C=C\C[C@@H](C2=O)N(C)C(=O)CN(C)C1=O [PP2665]
[1]
  HRAS/KRAS (ratio of KD value with respect to GDP-bound HRAS wild-type protein to KD value with respect to KRAS): A (a compound having 10 or more and less than 20 is denoted as A)
[2]
  IC50: 23.4 nM
[3]; [5]
  Kd: 0.56 nM
[4]
  NRAS/KRAS (ratio of KD value with respect to GDP-bound NRAS wild-type protein to KD value with respect to KRAS): A (a compound having 10 or more and less than 20 is denoted as A)
